Source: the NIST ThermoML archive (doi:10.1016/j.jct.2011.11.025)
Numbers after ± are expanded uncertainties.

Settings: 101.33 kPa, Liquid, Vibrating tube method

CCCCCCn1cc[n+](C)c1.N#C[B-](C#N)(C#N)C#N [1-hexyl-3-methylimidazolium tetracyanoborate]
Settings | mass density [kg/m3]
318.15 K | 976.11 ± 0.23
328.15 K | 969.06 ± 0.23
338.15 K | 962.08 ± 0.23
348.15 K | 955.16 ± 0.23
358.15 K | 948.32 ± 0.23
368.15 K | 941.2 ± 0.23
